# Molecular target: T1, Purified recombinant NBD1 (Homo sapiens, UniProt P13569)
# T1 construct: Purified recombinant NBD1 was produced using previously described methods; made in house
# Test: Aggregation analysis using differential static light scattering (DSLS): thermal stability of NBD1
# Assay type: binding
# Details: NBD1 0.2 mg/ml; Tagg of compound well minus average Tagg of DMSO control wells
# Procedure: Purified recombinant NBD1 was produced using previously described methods (A. Schmidt, J. L. Mendoza, P. J. Thomas (2011) Biochemical and Biophysical Approaches to Probe CFTR Structure (365-376) M. D. Amaral, K. Kunzelmann (eds.), Cystic Fibrosis, Methods in Molecular Biology 741, Springer Science+Business Media). The effect of test compounds on thermal stability of NBD1 was evaluated by differential static light scattering (DSLS) using the Harbinger Stargazer-384 instrument (Epiphyte Three, Toronto, Canada). Test compounds were dissolved and diluted to desired concentrations in 100% DMSO. The compounds or DMSO controls (100 nL) were stamped into wells of a […] low volume optical plate (Corning Inc., Corning, NY) using the Echo 555 acoustic liquid handler (Labcyte Inc., San Jose, CA).
# NBD1 protein was diluted to 0.2 mg/ml in S200 buffer (50 mM Tris-HCl, 150 mM NaCl, 5 mM MgCl2, 2 mM ATP, 2 mM DTT, pH7.6) containing 1% glycerol. 10 uL of protein solution was aliquoted into the 384-well plate harboring the test compounds and 10 uL mineral oil was overlaid onto the protein solution, using the epMotion robotic liquid handler (Eppendorf North America, Hauppauge, NY). After placing into the Stargazer instrument, the plate was heated at 1° C. per minute to 70° C. Images were captured from 25° C. to 70° C. every 0.5° C. At the end of the experiment run, instrument software integrated image files and analyzed data automatically. A […] regression curve was generated for each well, representing the increase in light scattering over time. A temperature of aggregation (Tagg) was calculated based on the inflection point of the curve. To better compare data across experiments the average Tagg for DMSO control wells was calculated and subtracted from values for wells containing compounds to obtain a “ΔTagg” value. These ΔTagg values reflect stabilizing efficacy of the compounds. As set forth in Table 2 below, an ΔTagg value less than or equal to 5° C. is marked “A”; a value above 5° C. and less than or equal to 10° C. is marked “B”; a value greater than 10° C. and less than or equal to 25° C. is marked “C”.
# T1 sequence (P13569 423-646 limits assumed): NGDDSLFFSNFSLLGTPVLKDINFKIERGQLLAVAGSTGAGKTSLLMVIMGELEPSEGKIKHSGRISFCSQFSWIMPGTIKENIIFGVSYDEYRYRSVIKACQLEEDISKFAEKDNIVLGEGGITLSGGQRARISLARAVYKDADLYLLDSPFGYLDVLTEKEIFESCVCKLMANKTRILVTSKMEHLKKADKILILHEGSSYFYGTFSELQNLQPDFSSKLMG
row,SMILES,DSLS (ΔTagg)
1,"O=C(O)CCc1cccc(C2CCCCCCNC(=O)CCc3c(c(F)cc4[nH]cnc34)Oc3ccc(F)c(c3)-c3ncc2[nH]3)c1 (stereo not drawn) [Compound 5, 3-[3-(24,30-Difluoro-14-oxo-26-oxa-3,13,19,21,32-pentazapentacyclo-[25.3.1.12,5.017,25.018,22]dotriaconta-1(31),2,4,17,19,22,24,27,29-nonaen-6-yl)phenyl]propanoic acid]",B (a value above 5 °C and less than or equal to 10 °C is marked “B”)
2,"CN1CC(=O)CCCC(C)(c2cccc(CCC(=O)O)c2)c2cnc([nH]2)-c2cc(ccc2F)Oc2c(F)cc3[nH]ccc3c2CCC1=O (stereo not drawn) [Compound 105, 3-[3-(23,29-Difluoro-6,12-dimethyl-10,13-dioxo-25-oxa-3,12,20,31-tetrazapentacyclo[24.3.1.12,5.016,24.017,21]hentriaconta-1(30),2,4,16,18,21,23,26,28-nonaen-6-yl)phenyl]propanoic acid]",C (a value greater than 10 °C and less than or equal to 25 °C is marked “C”)
3,"CC(Cc1cccc(C2CCCCCN(C)C(=O)CCc3c(c(F)cc4[nH]ccc34)Oc3ccc(F)c(c3)-c3ncc2[nH]3)c1)C(=O)O (stereo not drawn) [Compound 22, 3-[3-(23,29-Difluoro-12-methyl-13-oxo-25-oxa-3,12,20,31-tetrazapentacyclo[24.3.1.12,5.016,24.017,21]hentriaconta-1(30),2,4,16,18,21,23,26,28-nonaen-6-yl)phenyl]-2-methyl-propanoic acid]",C (a value greater than 10 °C and less than or equal to 25 °C is marked “C”)
4,"O=C1CCc2c(c(F)cc3[nH]ccc23)Oc2ccc(F)c(c2)-c2ncc([nH]2)C(c2ccccc2)CCCCCN1 (stereo not drawn) [Compound 2, 23,29-Difluoro-6-phenyl-25-oxa-3,12,20,31-tetrazapentacyclo[24.3.1.12,5.016,24.017,21]hentriaconta-1(30),2,4,16,18,21,23,26,28-nonaen-13-one]",C (a value greater than 10 °C and less than or equal to 25 °C is marked “C”)
5,"CC1(c2cccc(CCC(=O)O)c2)CCC(=O)NCCCCc2c(c(F)cc3[nH]ccc23)Oc2ccc(F)c(c2)-c2ncc1[nH]2 (stereo not drawn) [Compound 24, 3-[3-(22,28-Difluoro-6-methyl-9-oxo-24-oxa-3,10,19,30-tetrazapentacyclo[23.3.1.12,5.015,23.016,20]triaconta-1(29),2,4,15,17,20,22,25,27-nonaen-6-yl)phenyl]propanoic acid]",C (a value greater than 10 °C and less than or equal to 25 °C is marked “C”)
6,"CC(Cc1cccc(C2CCCCCNC(=O)CCc3c(c(F)cc4[nH]ccc34)Oc3ccc(F)c(c3)-c3ncc2[nH]3)c1)C(=O)O (stereo not drawn) [Compound 7, 3-[3-(23,29-Difluoro-13-oxo-25-oxa-3,12,20,31-tetrazapentacyclo-[24.3.1.12,5.016,24.017,21]hentriaconta-1(30),2,4,16,18,21,23,26,28-nonaen-6-yl)phenyl]-2-methyl-propanoic acid]",C (a value greater than 10 °C and less than or equal to 25 °C is marked “C”)
7,"O=C1CCc2c(c(F)cc3[nH]ccc23)Oc2ccc(F)c(c2)-c2ncc([nH]2)C(c2ccccc2)CCCCS(=O)(=O)N1 (stereo not drawn) [Compound 13, 23,29-Difluoro-11,11-dioxo-6-phenyl-25-oxa-116-thia-3,12,20,31-tetrazapentacyclo[24.3.1.12,5.016,24.017,21]hentriaconta-1(30),2,4,16,18,21,23,26,28-nonaen-13-one]",C (a value greater than 10 °C and less than or equal to 25 °C is marked “C”)
8,"CC(CC(=O)O)c1cccc(C2CCCCCN(C)C(=O)CCc3c(c(F)cc4[nH]ccc34)Oc3ccc(F)c(c3)-c3ncc2[nH]3)c1 (stereo not drawn) [Compound 21, 3-[3-(23,29-Difluoro-12-methyl-13-oxo-25-oxa-3,12,20,31-tetrazapentacyclo[24.3.1.12,5.016,24.017,21]hentriaconta-1(30),2,4,16,18,21,23,26,28-nonaen-6-yl)phenyl]butanoic acid]",C (a value greater than 10 °C and less than or equal to 25 °C is marked “C”)
9,"O=C(O)CCc1cccc(C2CCCCCNC(=O)CCc3c(c(F)cc4[nH]ccc34)Oc3ccc(F)c(c3)-c3ncc2[nH]3)c1 (stereo not drawn) [Compound 1, 3-[3-(23,29-difluoro-13-oxo-25-oxa-3,12,20,31-tetrazapentacyclo[24.3.1.12,5.016,24.017,21]hentriaconta-1(30),2,4,16,18,21,23,26,28-nonaen-6-yl)phenyl]propanoic acid]",B (a value above 5 °C and less than or equal to 10 °C is marked “B”)
10,"CN1CC(C)(C)COCC(C)(c2cccc(CCC(=O)O)c2)c2cnc([nH]2)-c2cc(ccc2F)Oc2c(F)cc3[nH]ccc3c2CCC1=O (racemic) [Compound 20A, 3-[3-(23,29-Difluoro-6,10,10,12-tetramethyl-13-oxo-8,25-dioxa-3,12,20,31-tetrazapentacyclo[24.3.1.12,5.016,24.017,21]hentriaconta-1(30),2,4,16,18,21,23,26,28-nonaen-6-yl)phenyl]propanoic acid]",C (a value greater than 10 °C and less than or equal to 25 °C is marked “C”)
11,"CN1CCOCC(C)(c2cccc(CCC(=O)O)c2)c2cnc([nH]2)-c2cc(ccc2F)Oc2c(F)cc3[nH]ccc3c2CCC1=O (stereo not drawn) [Compound 19, 3-[3-(22,28-Difluoro-6,11-dimethyl-12-oxo-8,24-dioxa-3,11,19,30-tetrazapentacyclo[23.3.1.12,5.015,23.016,20]triaconta-1(29),2,4,15,17,20,22,25,27-nonaen-6-yl)phenyl]propanoic acid]",C (a value greater than 10 °C and less than or equal to 25 °C is marked “C”)
12,"CC1(C)CCC(c2cccc(CCC(=O)O)c2F)c2cnc([nH]2)-c2cc(ccc2F)Oc2c(F)cc3[nH]ccc3c2CCC(=O)NC1 (stereo not drawn) [Compound 32, 3-[3-(22,28-Difluoro-9,9-dimethyl-12-oxo-24-oxa-3,11,19,30-tetrazapentacyclo[23.3.1.12,5.015,23.016,20]triaconta-1(29),2,4,15,17,20,22,25,27-nonaen-6-yl)-2-fluoro-phenyl]propanoic acid]",B (a value above 5 °C and less than or equal to 10 °C is marked “B”)
